Test results reported in ChEMBL document CHEMBL2440117, “Improved inhibitory activities against tumor-cell migration and invasion by 15-benzylidene substitution derivatives of andrographolide” (Bioorg Med Chem Lett, 2013).
The source made the active and inactive calls. No cut-off for these calls is given here.

Assays:
PC-3 [1] = assay: Antimigratory activity against human PC3 cells at 10 uM after 12 to 48 hrs by wound-healing assay relative to control; assay type: functional
SGC-7901 [2] = assay: Cytotoxicity against human SGC7901 cells assessed as growth inhibition at 10 uM after 48 hrs by MTT assay relative to control; assay type: functional, cell-based
5637 [3] = assay: Cytotoxicity against human 5637 cells assessed as growth inhibition at 10 uM after 48 hrs by MTT assay relative to control; assay type: functional, cell-based
5637 [4] = assay: Antimigratory activity against human 5637 cells at 10 uM after 12 to 48 hrs by wound-healing assay relative to control; assay type: functional
SGC-7901 [5] = assay: Antimigratory activity against human SGC7901 cells at 10 uM after 12 to 48 hrs by wound-healing assay relative to control; assay type: functional
PC-3 [6] = assay: Cytotoxicity against human PC3 cells assessed as growth inhibition at 10 uM after 48 hrs by MTT assay relative to control; assay type: functional; conditions: for inhibition of growth at 10 µM: PC-3, 48 h, read-out: GI
ECa-109 [7] = assay: Cytotoxicity against human EC109 cells assessed as growth inhibition at 10 uM after 48 hrs by MTT assay; assay type: functional, cell-based
SGC-7901 [8] = assay: Downregulation of MMP-7 mRNA expression in human SGC7901 cells after 48 hrs by semi-quantitative RT-PCR analysis; assay type: functional, cell-based
SGC-7901 [9] = assay: Downregulation of MMP-9 mRNA expression in human SGC7901 cells at 10 uM after 48 hrs by semi-quantitative RT-PCR analysis; assay type: functional, cell-based
5637 [10] = assay: Cytotoxicity against human 5637 cells assessed as growth inhibition at 5 uM after 48 hrs by MTT assay relative to control; assay type: functional; conditions: Homo sapiens, 5637, 48 h; read-out: GI
ECa-109 [11] = assay: (§1) Antimigratory activity against human EC109 cells at 10 uM after 12 to 48 hrs by wound-healing assay relative to control; assay type: functional
SGC-7901 [12] = assay: Antiinvasive activity against human SGC7901 cells at 5 to 10 uM after 24 hrs by matrigel invasion assay relative to control; assay type: functional, cell-based
SGC-7901 [13] = assay: Antiinvasive activity against human SGC7901 cells at 10 uM after 24 hrs by matrigel invasion assay relative to control; assay type: functional; conditions: SGC-7901, 24 h
HT-29 [14] = assay: Cytotoxicity against human HT-29 cells assessed as growth inhibition at 10 uM after 48 hrs by MTT assay; assay type: functional, cell-based
HT-29 [15] = assay: Antimigratory activity against human HT-29 cells at 10 uM after 12 to 48 hrs by wound-healing assay relative to control; assay type: functional
5637 [16] = assay: Antimigratory activity against human 5637 cells at 2.5 uM after 12 to 48 hrs by wound-healing assay; assay type: functional, cell-based
5637 [17] = assay: Antimigratory activity against human 5637 cells at 5 uM after 12 to 48 hrs by wound-healing assay relative to control; assay type: functional
SGC-7901 [18] = assay: Effect on MMP-2 mRNA expression in human SGC7901 cells at 10 uM after 48 hrs by semi-quantitative RT-PCR analysis; assay type: functional, cell-based
A549 [19] = assay: Cytotoxicity against human A549 cells assessed as growth inhibition at 10 uM after 48 hrs by MTT assay; assay type: functional, cell-based
A549 [20] = assay: Antimigratory activity against human A549 cells at 5 uM after 12 to 48 hrs by wound-healing assay relative to control; assay type: functional
SGC-7901 [21] = assay: Antiinvasive activity against human SGC7901 cells after 24 hrs by matrigel invasion assay; assay type: functional, cell-based; conditions: SGC-7901, 24 h
SGC-7901 [22] = assay: Downregulation of MMP-2 mRNA expression in human SGC7901 cells at 1.25 uM after 48 hrs by semi-quantitative RT-PCR analysis; assay type: functional, cell-based
[23] = as §1; assay type: functional; conditions: ECa-109
SGC-7901 [24] = assay: Downregulation of MMP-2 protein expression in human SGC7901 cells at 10 uM after 72 hrs by microscopic analysis; assay type: functional, cell-based
SGC-7901 [25] = assay: Downregulation of MMP-7 protein expression in human SGC7901 cells at 2.5 to 10 uM after 72 hrs by microscopic analysis; assay type: functional, cell-based
SGC-7901 [26] = assay: Downregulation of MMP-9 mRNA expression in human SGC7901 cells at 1.25 to 2.5 uM after 48 hrs by semi-quantitative RT-PCR analysis; assay type: functional, cell-based
A549 [27] = assay: Antimigratory activity against human A549 cells at 10 uM after 12 to 48 hrs by wound-healing assay relative to control; assay type: functional
SGC-7901 [28] = assay: Antimigratory activity against human SGC7901 cells after 12 to 48 hrs by wound-healing assay; assay type: functional, cell-based
SGC-7901 [29] = assay: Downregulation of MMP-9 protein expression in human SGC7901 cells at 2.5 to 10 uM after 72 hrs by microscopic analysis; assay type: functional, cell-based
SGC-7901 [30] = assay: Downregulation of MMP-7 mRNA expression in human SGC7901 cells at 1.25 to 10 uM after 48 hrs by semi-quantitative RT-PCR analysis; assay type: functional, cell-based
[31] = Antimigratory activity against human EC109 cells at 5 uM after 12 to 48 hrs by wound-healing assay relative to control; assay type: functional; conditions: ECa-109
HT-29 [32] = assay: Antimigratory activity against human HT-29 cells after 12 to 48 hrs by wound-healing assay; assay type: functional, cell-based
PC-3 [33] = assay: Antimigratory activity against human PC3 cells after 12 to 48 hrs by wound-healing assay; assay type: functional, cell-based
5637 [34] = assay: Antimigratory activity against human 5637 cells after 12 to 48 hrs by wound-healing assay; assay type: functional, cell-based
A549 [35] = assay: Antimigratory activity against human A549 cells after 12 to 48 hrs by wound-healing assay; assay type: functional, cell-based

Structure (SMILES)	inhibition (PC-3 [1])	growth inhibition (GI) (SGC-7901 [2])	growth inhibition (GI) 5637 [3]	inhibition (SGC-7901 [5])	growth inhibition (GI) (PC-3 [6])	growth inhibition (GI) (ECa-109 [7])	inhibition of growth at 5 µM 5637 [10]	growth inhibition (GI) (HT-29 [14])	inhibition at 5 µM 5637 [17]	growth inhibition (GI) (A549 [19])	further results
C=C1CC[C@@H]2[C@](C)(CO)[C@H](O)CC[C@@]2(C)[C@@H]1/C=C/C1=CCOC1=O	inactive	inactive	inactive	inactive	inactive	–	–	–	–	–	inhibition at 10 µM 5637 [4]: 44.7%
C=C1CC[C@@H]2[C@](C)(CO)[C@H](O)CC[C@@]2(C)[C@@H]1C/C=C1/C(=O)OC[C@H]1O [ANDROGRAPHOLIDE]	inactive	inactive	–	–	inactive	inactive	44%	inactive	34.5%	inactive	Activity (SGC-7901 [8]): Dose-dependent effect; Activity (SGC-7901 [9]): Active; inhibition (ECa-109 [11]): inactive; inhibition (SGC-7901 [12]): Active; inhibition at 10 µM (SGC-7901 [13]): 17.7%; inhibition (HT-29 [15]): inactive; inhibition 5637 [16]: inactive; Activity (SGC-7901 [18]): inactive; inhibition at 10 µM (SGC-7901 [5]): 20.8%; inhibition at 5 µM (A549 [20]): 28.6%
C=C1CC[C@@H]2[C@](C)(CO)[C@H](O)CC[C@@]2(C)[C@@H]1/C=C/C1=CC(=C/c2ccc(Cl)cc2)/OC1=O	–	inactive	–	–	–	inactive	25.3%	inactive	16.4%	inactive	inhibition at 10 µM (PC-3 [1]): 58.5%; IC50 (SGC-7901 [21]): 4.6 µM; Activity (SGC-7901 [22]): Active; inhibition at 10 µM [23]: 40.7%; Activity (SGC-7901 [24]): Active; inhibition at 10 µM (HT-29 [15]): 48.1%; Activity (SGC-7901 [25]): Active; Activity (SGC-7901 [26]): Active; inhibition at 10 µM (A549 [27]): 41.4%; IC50 (SGC-7901 [28]): 4.3 µM; Activity (SGC-7901 [29]): Active; Activity (SGC-7901 [30]): Active; inhibition of growth at 10 µM (PC-3 [6]): 11.3%
C=C1CC[C@@H]2[C@](C)(CO)[C@H](O)CC[C@@]2(C)[C@@H]1/C=C/C1=CC(=C/c2ccccc2)/OC1=O	–	inactive	inactive	–	inactive	inactive	–	inactive	–	inactive	inhibition at 5 µM [31]: 45.3%; IC50 (HT-29 [32]): 48.4 µM; IC50 (PC-3 [33]): 13.2 µM; inhibition at 10 µM 5637 [4]: 44.8%; inhibition at 10 µM (SGC-7901 [5]): 30.3%; inhibition at 5 µM (A549 [20]): 45.1%
C=C1CC[C@@H]2[C@](C)(COC(=O)c3cccnc3)[C@H](OC(=O)c3cccnc3)CC[C@@]2(C)[C@@H]1/C=C/C1=CC(=C/c2ccc(Cl)cc2)/OC1=O	inactive	inactive	inactive	–	inactive	–	–	–	–	–	IC50 5637 [34]: 8.1 µM; inhibition at 10 µM (SGC-7901 [5]): 22.3%
C=C1CC[C@@H]2[C@]3(C)COCO[C@@H]3CC[C@@]2(C)[C@@H]1C/C=C1/C(=O)OC[C@H]1O	inactive	inactive	–	inactive	inactive	–	25.3%	–	36.3%	–	–
C=C1CC[C@@H]2[C@](C)(CO)[C@H](O)CC[C@@]2(C)[C@@H]1/C=C/C1=CC(=C/c2ccc(F)cc2)/OC1=O	–	inactive	–	–	inactive	inactive	32.5%	inactive	19.5%	inactive	inhibition at 10 µM (PC-3 [1]): 34.3%; inhibition at 10 µM [23]: 34.2%; inhibition at 10 µM (HT-29 [15]): 39.5%; IC50 (SGC-7901 [28]): 8 µM; IC50 (A549 [35]): 7.2 µM
C=C1CC[C@@H]2[C@](C)(CO)[C@H](O)CC[C@@]2(C)[C@@H]1/C=C/C1=CC(=C/c2ccc(Br)cc2)/OC1=O	–	inactive	–	–	–	–	33.6%	–	27.9%	–	inhibition at 10 µM (PC-3 [1]): 83.8%; IC50 (SGC-7901 [28]): 8.6 µM; inhibition of growth at 10 µM (PC-3 [6]): 40.2%
C=C1CC[C@@H]2[C@](C)(COC(=O)c3cccnc3)[C@H](OC(=O)c3cccnc3)CC[C@@]2(C)[C@@H]1/C=C/C1=CCOC1=O	inactive	inactive	inactive	inactive	inactive	–	–	–	–	–	inhibition at 10 µM 5637 [4]: 31.7%
C=C1CC[C@@H]2[C@](C)(COC(=O)CCC(=O)O)[C@H](OC(=O)CCC(=O)O)CC[C@@]2(C)[C@@H]1/C=C/C1=CC(=C/c2ccc(Cl)cc2)/OC1=O	inactive	inactive	inactive	inactive	inactive	–	–	–	–	–	inhibition 5637 [4]: inactive
C=C1CC[C@@H]2[C@](C)(COC(=O)CCC(=O)O)[C@H](OC(=O)CCC(=O)O)CC[C@@]2(C)[C@@H]1/C=C/C1=CCOC1=O	inactive	inactive	inactive	inactive	inactive	–	–	–	–	–	inhibition 5637 [4]: inactive
C[C@@]12COCO[C@@H]1CC[C@]1(C)[C@@H]2CC[C@@]2(CO2)[C@H]1C/C=C1/C(=O)OC[C@H]1O	inactive	inactive	–	inactive	inactive	–	32.9%	–	18.4%	–	–
C=C1CC[C@@H]2[C@](C)(CO)[C@H](O)CC[C@@]2(C)[C@@H]1/C=C/C1=CC(=C/c2ccc(OC)cc2)/OC1=O	–	inactive	–	–	inactive	inactive	33.7%	inactive	17.9%	inactive	inhibition at 10 µM (PC-3 [1]): 34%; inhibition at 10 µM [23]: 41.3%; inhibition at 10 µM (HT-29 [15]): 38.7%; inhibition at 10 µM (A549 [27]): 35.1%; inhibition at 10 µM (SGC-7901 [5]): 48.5%
C[C@]1(CO)[C@H]2CC[C@@]3(CO3)[C@@H](/C=C/C3=CCOC3=O)[C@]2(C)CC[C@H]1O	inactive	inactive	inactive	inactive	inactive	–	–	–	–	–	inhibition at 10 µM 5637 [4]: 22.5%
